Key:
Type in all cases: functional
[1] = system: Pseudomonas aeruginosa; assay: Minimum inhibitory concentration against Pseudomonas aeruginosa; value ranges from 2-4 ug cm-3
[2] = system: Pseudomonas aeruginosa; assay: Minimum bactericidal concentration against Pseudomonas aeruginosa; value ranges from 2-4 ug cm-3
[3] = system: Staphylococcus aureus; assay: Minimum bactericidal concentration against Staphylococcus aureus; value ranges from 2-8 ug cm-3
[4] = system: Staphylococcus aureus; assay: Minimum inhibitory concentration against Staphylococcus aureus; value ranges from 2-4 ug cm-3

O[C@H]1C[C@H]2C=Nc3ccccc3C(=S)N2C1
2 ug cm**-3: MIC [1] | MBC [2] | MBC [3] | MIC [4]

From ChEMBL document CHEMBL1151048, “Synthesis and antimicrobial activity of 5-thioabbeymycin: limitations of the iminothioether approach to carbinolamine-containing pyrrolobenzodiazepines” (1993)
